From the Kinase Knowledgebase extract (Sharma et al. 2016)
pIC50: −log10 of the molar value. Values after ≈ are worked out from the molar mass of the structure shown.

Experiments:
EGFR (human) [1] = biological target: EGFR (human) (UniProt P00533); conditions: mda-mb-435
EGFR (human) [2] = biological target: EGFR (human) (UniProt P00533); conditions: sk-br-3
EGFR (human) [3] = biological target: EGFR (human) (UniProt P00533); conditions: a431
EGFR (human) [4] = biological target: EGFR (human) (UniProt P00533); conditions: sw 620
EGFR (human) [5] = biological target: EGFR (human) (UniProt P00533); conditions: for inhibition: ht-29, concentration not given here; for pIC50: ht-29

EGFR (human), sequence (P00533 whole entry, looked up): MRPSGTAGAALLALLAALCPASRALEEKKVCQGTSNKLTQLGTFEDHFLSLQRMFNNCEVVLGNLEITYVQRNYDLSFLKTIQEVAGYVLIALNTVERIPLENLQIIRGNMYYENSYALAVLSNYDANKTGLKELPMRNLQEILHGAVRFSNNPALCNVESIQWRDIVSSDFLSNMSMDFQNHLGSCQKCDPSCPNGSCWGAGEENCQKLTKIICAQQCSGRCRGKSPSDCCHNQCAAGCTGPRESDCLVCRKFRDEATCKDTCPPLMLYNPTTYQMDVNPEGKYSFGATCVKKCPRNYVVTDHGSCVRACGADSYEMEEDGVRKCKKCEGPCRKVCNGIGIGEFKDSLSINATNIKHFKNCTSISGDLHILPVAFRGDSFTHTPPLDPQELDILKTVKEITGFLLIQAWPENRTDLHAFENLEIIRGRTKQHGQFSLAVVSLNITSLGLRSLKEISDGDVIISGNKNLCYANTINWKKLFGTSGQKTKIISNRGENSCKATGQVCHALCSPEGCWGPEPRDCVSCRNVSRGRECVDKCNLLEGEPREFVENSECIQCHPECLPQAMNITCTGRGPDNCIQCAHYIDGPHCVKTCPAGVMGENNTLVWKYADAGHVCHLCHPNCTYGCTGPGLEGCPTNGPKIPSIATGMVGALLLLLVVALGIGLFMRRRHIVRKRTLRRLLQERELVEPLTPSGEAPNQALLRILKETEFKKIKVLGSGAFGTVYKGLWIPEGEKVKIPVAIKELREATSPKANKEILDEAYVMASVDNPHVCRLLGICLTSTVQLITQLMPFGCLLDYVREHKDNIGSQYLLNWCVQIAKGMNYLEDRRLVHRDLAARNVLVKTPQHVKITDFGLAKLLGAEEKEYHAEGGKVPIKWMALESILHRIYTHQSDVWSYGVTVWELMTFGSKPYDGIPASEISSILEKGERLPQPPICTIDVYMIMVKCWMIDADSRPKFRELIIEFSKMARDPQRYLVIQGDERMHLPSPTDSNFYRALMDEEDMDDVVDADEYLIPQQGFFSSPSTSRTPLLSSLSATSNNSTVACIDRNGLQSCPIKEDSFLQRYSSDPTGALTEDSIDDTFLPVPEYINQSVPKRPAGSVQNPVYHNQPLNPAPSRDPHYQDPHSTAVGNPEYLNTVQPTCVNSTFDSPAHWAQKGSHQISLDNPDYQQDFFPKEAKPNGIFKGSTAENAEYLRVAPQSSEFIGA

Structure (SMILES) | IC50 (EGFR (human) [1]) [mg/L] | IC50 (EGFR (human) [2]) [mg/L] | IC50 (EGFR (human) [3]) [mg/L] | IC50 (EGFR (human) [4]) [mg/L] | inhibition (EGFR (human) [5]) [%] | pIC50 (EGFR (human) [5])
N#Cc1cnc2c(sc3ccccc32)c1Nc1cccc(Br)c1 | > 5 | > 5 | > 5 | > 5 | – | –
COc1cc(Nc2c(C#N)cnc3cc4nc[nH]c4cc23)cc(OC)c1OC | – | – | – | – | 0 | –
N#Cc1cnc2c(sc3ccc([N+](=O)[O-])cc32)c1Nc1ccc(Cl)cc1Cl | 0.46 (≈ 1.11 µM) | 0.59 (≈ 1.42 µM) | 0.41 (≈ 0.987 µM) | 0.67 (≈ 1.61 µM) | – | –
COc1cc(Nc2c(C#N)cnc3cc4cc(OCCN5CCN(C)CC5)c(OC)cc4cc23)c(C)cc1Cl | – | – | – | – | – | 5.07
COc1cc(Nc2c(C#N)cnc3cc4nc[nH]c4cc23)c(Br)cc1Cl | – | – | – | – | 35 | –
COc1cc(Nc2c(C#N)cnc3cc4cc(OCCN5CCOCC5)c(OC)cc4cc23)c(C)cc1Cl | – | – | – | – | – | < 5.00
N#Cc1cnc2cc3nc[nH]c3cc2c1Nc1cccc(Br)c1 | 3.48 (≈ 9.56 µM) | 0.6 (≈ 1.65 µM) | 0.58 (≈ 1.59 µM) | 3.72 (≈ 10.2 µM) | – | –
CCOc1cc2cc3c(Nc4cc(OC)c(Cl)cc4C)c(C#N)cnc3cc2cc1OCCN1CCOCC1 | – | – | – | – | – | < 5.00
N#Cc1cnc2c(sc3ccc(N)cc32)c1Nc1cccc(Br)c1 | > 5 | > 5 | > 5 | > 5 | – | –
N#Cc1cnc2c(oc3ccccc32)c1Nc1cccc(Br)c1 | > 5 | > 5 | > 5 | > 5 | – | –
COc1cc2cc3c(Nc4ccc(OCc5ccccc5)c(Cl)c4)c(C#N)cnc3cc2cc1OCCN1CCOCC1 | 33.5 (≈ 56.3 µM) | 3.5 (≈ 5.88 µM) | 4.7 (≈ 7.9 µM) | 11.6 (≈ 19.5 µM) | – | –
N#Cc1cnc2cc3nc[nH]c3cc2c1Nc1ccc(Cl)cc1Br | – | – | – | – | 25 | –
C=CC(=O)Nc1cccc2c1sc1c(Nc3cccc(Br)c3)c(C#N)cnc12 | 3.9 (≈ 8.68 µM) | 1.09 (≈ 2.43 µM) | 1.11 (≈ 2.47 µM) | > 5 | – | –
N#Cc1cnc2cc3cc(O)c(O)cc3cc2c1Nc1ccc(Cl)cc1Cl | 0.85 (≈ 2.15 µM) | > 5 | 0.58 (≈ 1.46 µM) | 0.38 (≈ 0.959 µM) | – | –
COc1cc(Nc2c(C#N)cnc3cc4cc(OCCN5CCOCC5)c(OC)cc4cc23)c(Cl)cc1C | – | – | – | – | – | 5.00
N#Cc1cnc2cc3ccccc3cc2c1Nc1ccc(F)c(Cl)c1 | 1.65 (≈ 4.74 µM) | 1.01 (≈ 2.9 µM) | 0.332 (≈ 0.955 µM) | 1.08 (≈ 3.11 µM) | – | –
COc1cc2cc3ncc(C#N)c(Nc4ccc(F)c(Cl)c4)c3cc2cc1OCCN1CCOCC1 | – | 0.04 (≈ 0.0789 µM) | 0.76 (≈ 1.5 µM) | 0.36 (≈ 0.71 µM) | – | –
COc1ccc(Cl)c(Nc2c(C#N)cnc3cc4nc[nH]c4cc23)c1 | – | – | – | – | 10 | –
C=CC(=O)Nc1ccc2sc3c(Nc4cccc(Br)c4)c(C#N)cnc3c2c1 | 1.69 (≈ 3.76 µM) | 0.224 (≈ 0.499 µM) | 0.838 (≈ 1.86 µM) | 1 (≈ 2.23 µM) | – | –
